Measured values as given in patent publication US9975880B2, “Imidazolidine-2,4-dione dervatives” (IPSEN PHARMA S.A.S., priority 2013, dated 2018).
In brackets after ≈: the same amount, converted by molar mass.

What was measured:
DU145 cells = assay: Anti-proliferative activity on DU145 in complete medium; type: cell-based; settings: DU145 (no androgen receptor), 144 h, up to 10,000 nM, Cell-Titer-Glow
Procedure: (§1) It is used to evaluate the selectivity of the compounds for androgen receptor expressing cells. No activity of the compounds is expected. • The cells of the DU145 line (ATCC HTB-81) are seeded at 800 cells/well in 90 μl of complete medium in 96-well plates coated with poly-D-lysine (Biocoat, Costar). • Treatment of the cells: 24 h after the seeding, the cells are treated with 10 μl/well of compound diluted in the culture medium. The concentrations used are the following: 1 nM/10/30/100/300/1000/3000/10,000 nM. The cells are incubated for 144 h at 37° C., 5% CO2. • Reading: After incubation for 6 days, cell proliferation was determined by Cell-Titer-Glow (CTG) Luminescent Cell Viability Assay • Results: The experiments are carried out in duplicate and the best compounds are tested twice. A concentration value inhibiting the cell proliferation by 50% (IC50) is calculated.

LNCaP cells = assay: Anti-proliferative activity on LNCaP in complete medium; type: cell-based; settings: Homo sapiens, 144 h, complete medium, 144 h incubation, Cell-Titer-Glow, read-out: IC50 on the LNCaP cells in culture (inhibition of cell proliferation by 50%)
Procedure: The anti-proliferative activity of the compounds of the present invention is determined on LNCaP in complete medium by applying the following experimental procedure:
The LNCaP cell type (ATCC, 1740) originates from a prostate carcinoma. This line expresses the androgen receptor and is hormone-dependent.
Maintenance of the LNCaP line is carried out in complete culture medium: RPMI, 10% of fetal calf serum, 2 mM glutamine, 100 U/ml penicillin, 0.1 mg/ml of streptomycin and 0.01M HEPES, 1 mM sodium pyruvate, […]. • Seeding the plates:
The LNCaP line is seeded at 20,000 cells/well in 90 μl of complete medium in 96-well plates coated with poly-D-lysine (Biocoat, Costar). • Treatment of the cells: 24 h after the seeding, the cells are treated with 10 μl/well of compound diluted in the culture medium. The concentrations used are the following: 1 nM/10/30/100/300/1000/3000/10,000 nM. The cells are incubated for 144 h at 37° C., 5% CO2. • Reading: After incubation for 6 days, cell proliferation was determined by Cell-Titer-Glow (CTG) Luminescent Cell Viability Assay. • Results: The experiments are carried out in duplicate and the best compounds are tested twice. […] Anti-Proliferative Activity on DU145 in Complete Medium

VCaP cells = assay: Anti-proliferative activity on VCaP in complete medium; type: cell-based; settings: Homo sapiens, Cell-Titer-Glow, read-out: IC50 on the VCaP cells in culture (inhibition of cell proliferation by 50%)
Procedure: as §1, with “•” for “It is used to evaluate the selectivity of the compounds for androgen receptor expressing cells. No activity of the compounds is expected. •”, “the VCaP” for “the DU145”, “(ATCC CRL-2876)” for “(ATCC HTB-81)”, “at 20000” for “at 800”, “for […]” for “for 6”

Evaluation of solubility = type: physicochemical; settings: aqueous buffer, kinetic from dmso stock; 100 mM potassium phosphate buffer pH 7.4, 0.1% DMSO, target 100 μM, 1 hour room temperature, LC-MS/MS
Procedure: Test compounds were prepared as stock solutions at 100 mM in DMSO. The stock solutions were diluted, in duplicate, into 100 mM potassium phosphate buffer (pH 7.4) to a target concentration of 100 μM with a final DMSO concentration of 0.1%. The solutions were shaken at 1000 rpm for 1 hour at room temperature followed by centrifugation for 10 minutes at 1200 rpm to precipitate un-dissolved particles. The supernatants were transferred to new tubes and the samples were further prepared as follows: • Undiluted: 5 μL of supernatant to 95 μL of ACN containing internal standard (IS) • 1:10 diluted: 10 μL of the supernatant into 90 μL K-buffer, mix, then transfer 5 μL of 1:10 diluted samples to 95 μL ACN containing IS • 1:100 diluted: 10 μL of the supernatant into 990 μL K-buffer, mix, then transfer 5 μL of 1:100 diluted samples to 95 μL of ACN containing IS
Samples (undiluted, 1:10 diluted, and 1:100 diluted) along with the standards were analyzed by LC-MS/MS.

| SMILES | IC50 on DU145 cells (anti-proliferative effect) (DU145 cells) | IC50 (LNCaP cells) | IC50 (VCaP cells) | solubility at 1 h (Evaluation of solubility) |
| --- | --- | --- | --- | --- |
| CC1(C)C(=O)N(c2ccc(C#N)c(C(F)(F)F)c2)C(=O)N1C/C=C\CN1CC(c2ccc(S(C)(=O)=O)c(C(F)(F)F)c2)CC1=O (stereo not drawn) [Example 13, (Z)-4-(4,4-dimethyl-3-(4-(4-(4-(methylsulfonyl)-3-(trifluoromethyl)phenyl)-2-oxopyrrolidin-1-yl)but-2-en-1-yl)-2,5-dioxoimidazolidin-1-yl)-2-(trifluoromethyl)benzonitrile] | no measurable IC50 | < 1.5 µM | ≤ 5 µM | – |
| CC1(C)C(=O)N(c2ccc(S(C)(=O)=O)c(C(F)(F)F)c2)C(=O)N1C/C=C\Cn1cc(-c2ccc(S(C)(=O)=O)c(C(F)(F)F)c2)cn1 [Example 3, (Z)-5,5-dimethyl-3-(4-(methylsulfonyl)-3-(trifluoromethyl)phenyl)-1-(4-(4-(4-(methylsulfonyl)-3-(trifluoromethyl)phenyl)-1H-pyrazol-1-yl)but-2-en-1-yl)imidazolidine-2,4-dione] | no measurable IC50 | < 1.5 µM | ≤ 5 µM | 0.2 µM (≈ 0.139 µg/mL) |
| CC1(C)C(=O)N(c2ccc(C#N)c(C(F)(F)F)c2)C(=O)N1C/C=C\CN1CC(c2ccc(S(C)(=O)=O)c(Cl)c2)CC1=O (stereo not drawn) [Example 14, (Z)-4-(3-(4-(4-(3-chloro-4-(methylsulfonyl)phenyl)-2-oxopyrrolidin-1-yl)but-2-en-1-yl)-4,4-dimethyl-2,5-dioxoimidazolidin-1-yl)-2-(trifluoromethyl)benzonitrile] | no measurable IC50 | – | ≤ 5 µM | 24.1 µM (≈ 15 µg/mL) |
| CC1(C)C(=O)N(c2ccc(C#N)c(C(F)(F)F)c2)C(=O)N1C/C=C\CN1CCN(c2ccc(S(C)(=O)=O)c(C(F)(F)F)c2)C1=O [Example 10, (Z)-4-(4,4-dimethyl-3-(4-(3-(4-(methylsulfonyl)-3-(trifluoromethyl)phenyl)-2-oxoimidazolidin-1-yl)but-2-en-1-yl)-2,5-dioxoimidazolidin-1-yl)-2-(trifluoromethyl)benzonitrile] | no measurable IC50 | – | ≤ 5 µM | – |
| CC1(C)C(=O)N(c2ccc(C#N)c(C(F)(F)F)c2)C(=O)N1C/C=C\CN1CCC(c2ccc(C#N)c(C(F)(F)F)c2)C1 (stereo not drawn) [Example 12, (Z)-4-(1-(4-(3-(4-cyano-3-(trifluoromethyl)phenyl)-5,5-dimethyl-2,4-dioxoimidazolidin-1-yl)but-2-en-1-yl)pyrrolidin-3-yl)-2-(trifluoromethyl)benzonitrile] | no measurable IC50 | < 1.5 µM | ≤ 5 µM | – |
